# Target: T1, c-kit (Homo sapiens, UniProt P10721)
# T1 construct: human Mo7e cells which endogenously express c-kit; endogenous in cells; host or cells: human Mo7e cells (SCF-dependent promegakaryocytic leukemia line)
# Test: Mo7e cell proliferation assay (SCF dependent proliferation)
# Assay type: cell-based
# Conditions: Table 1; human Mo7e cells stimulated with human recombinant SCF, 48 h, CellTiter Glo; 1% FBS (footnote)
# Protocol: Compounds of Formula (I) and Formula (II) provided herein were assayed to measure their capacity to inhibit c-kit and PDGFR kinases using the appropriate assay described below: c-Kit inhibition was evaluated using the Mo7e cell proliferation assay, and PDGFR inhibition was evaluated using the Rat A10 cell proliferation assay and the Human TGHA-VSMC cell proliferation assay.
# The compounds of Table 1 and Table 2 were tested for inhibition of SCF dependent proliferation using human Mo7e cells which endogenously express c-kit in a 384 well format. […] After 48 hours of incubation at 37° C., cell viability was measured by adding 25 uL of CellTiter Glo (Promega) to the cells and the luminescence was measured by a CLIPR CCD camera (Molecular Devices).
# The IC50 value is given as that concentration of the test compound in question that provoke a response halfway between the baseline and maximum responses.
# T1 sequence (P10721 26-976): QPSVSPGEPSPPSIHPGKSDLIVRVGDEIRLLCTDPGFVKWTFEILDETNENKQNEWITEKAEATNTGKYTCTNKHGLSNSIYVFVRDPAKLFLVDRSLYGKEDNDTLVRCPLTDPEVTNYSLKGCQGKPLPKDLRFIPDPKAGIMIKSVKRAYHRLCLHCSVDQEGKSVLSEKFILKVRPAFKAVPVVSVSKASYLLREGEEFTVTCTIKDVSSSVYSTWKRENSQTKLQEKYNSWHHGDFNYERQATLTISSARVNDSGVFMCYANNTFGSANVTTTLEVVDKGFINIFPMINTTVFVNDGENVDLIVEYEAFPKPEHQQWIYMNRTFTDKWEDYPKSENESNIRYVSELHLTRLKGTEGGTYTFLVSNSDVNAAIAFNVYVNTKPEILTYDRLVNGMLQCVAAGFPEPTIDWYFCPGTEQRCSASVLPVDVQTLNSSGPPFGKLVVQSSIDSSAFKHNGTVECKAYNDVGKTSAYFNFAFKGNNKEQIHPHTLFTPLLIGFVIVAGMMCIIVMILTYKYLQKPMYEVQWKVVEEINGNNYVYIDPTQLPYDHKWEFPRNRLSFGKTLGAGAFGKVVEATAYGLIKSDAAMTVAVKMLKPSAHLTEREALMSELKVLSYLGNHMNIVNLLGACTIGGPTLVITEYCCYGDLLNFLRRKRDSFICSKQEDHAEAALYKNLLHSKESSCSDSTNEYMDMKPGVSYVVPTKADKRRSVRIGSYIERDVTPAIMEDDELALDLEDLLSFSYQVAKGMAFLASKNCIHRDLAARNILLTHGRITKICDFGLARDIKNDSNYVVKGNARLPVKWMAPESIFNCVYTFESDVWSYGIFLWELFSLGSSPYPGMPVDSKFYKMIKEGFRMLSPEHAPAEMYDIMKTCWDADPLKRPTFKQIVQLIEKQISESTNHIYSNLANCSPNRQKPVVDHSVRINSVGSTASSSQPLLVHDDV
row,SMILES,IC50 [nM]
1,Cc1ccc(-c2noc(CC(C)(O)C(F)(F)F)n2)cc1NC(=O)c1cnc2ccccn12 (stereo not drawn) [F15],82
2,"Cc1nc(-c2ccc(C)c(NC(=O)c3cnc4ccc(-c5ccccc5C)cn34)c2)no1 [F81, N-(2-methyl-5-(5-methyl-1,2,4-oxadiazol-3-yl)phenyl)-6-(o-tolyl)imidazo[1,2-a]pyridine-3-carboxamide]",96
3,Cc1ccc2ncc(C(=O)Nc3cc(-c4noc(CCC(C)(C)O)n4)ccc3C)n2c1 [F57],98
4,CCCC(C)c1nc(-c2ccc(C)c(NC(=O)c3cnc4ccc(C)cn34)c2)no1 (stereo not drawn) [F59],22
5,Cc1ccc(-c2noc(CC[C@@](C)(O)C(F)(F)F)n2)cc1NC(=O)c1cnc2cc(F)ccn12 [F89],41
6,Cc1ccc(-c2noc(CCC(F)(F)F)n2)cc1NC(=O)c1cnc2ccccn12 [F74],36
7,"Cc1nc(-c2ccc(C)c(NC(=O)c3cnc4ccc(-c5c[nH]nc5C)cn34)c2)no1 [F257, 6-(3-methyl-1H-pyrazol-4-yl)-N-(2-methyl-5-(5-methyl-1,2,4-oxadiazol-3-yl)phenyl)imidazo[1,2-a]pyridine-3-carboxamide]",19
8,Cc1ccc(-c2noc(CCCC(F)(F)F)n2)cc1NC(=O)c1cnc2ccccn12 [F80],5
9,"Cc1ccc(-c2noc(CNC(=O)OCC(F)F)n2)cc1NC(=O)c1cnc2ccccn12 [F40, 2,2-difluoroethyl ((3-(3-(imidazo[1,2-a]pyridine-3-carboxamido)-4-methylphenyl)-1,2,4-oxadiazol-5-yl)methyl)carbamate]",71
10,COCCOCc1nc(-c2ccc(C)c(NC(=O)c3cnc4ccc(C)cn34)c2)no1 [F58],90
11,COc1ccncc1-c1ccc2ncc(C(=O)Nc3cc(-c4noc(C)n4)ccc3C)n2c1 [F102],87
12,Cc1ccc(-c2noc(CCC(C)(O)C(F)(F)F)n2)cc1NC(=O)c1cnc2cc(F)ccn12 (stereo not drawn) [F70],44
13,Cc1ccc(-c2noc(N(C)CC(C)(C)O)n2)cc1NC(=O)c1cnc2cc(F)ccn12 [F65],100
14,COCCOCc1nc(-c2ccc(C)c(NC(=O)c3cnc4ccccn34)c2)no1 [F26],59
15,CNC(=O)c1ccc(-c2ccc3ncc(C(=O)Nc4cc(-c5noc(C)n5)ccc4C)n3c2)cn1 [F93],68
16,COc1ccc2ncc(C(=O)Nc3cc(-c4noc(CCC(C)(C)O)n4)ccc3C)n2c1 [F56],70
17,"Cc1ccc(-c2noc(CCC(C)(C)O)n2)cc1NC(=O)c1cnc2ccccn12 [F8, N-(5-(5-(3-hydroxy-3-methylbutyl)-1,2,4-oxadiazol-3-yl)-2-methylphenyl)imidazo[1,2-a]pyridine-3-carboxamide]",63
18,Cc1nc(-c2ccc(C)c(NC(=O)c3cnc4ccc(-c5cnn(CC(C)(C)O)c5)cn34)c2)no1 [F45],24
19,"Cc1nc(-c2ccc(C)c(NC(=O)c3cnc4ccc(-c5sc(C(=O)NCCN6CCOCC6)nc5C)cn34)c2)no1 [F262, 4-methyl-5-(3-((2-methyl-5-(5-methyl-1,2,4-oxadiazol-3-yl)phenyl)carbamoyl)imidazo[1,2-a]pyridin-6-yl)-N-(2-morpholinoethyl)thiazole-2-carboxamide]",75
20,Cc1ccc(-c2noc(CNC(=O)OC(C)C)n2)cc1NC(=O)c1cnc2ccccn12 [F30],61
21,"Cc1ccn2c(C(=O)Nc3cc(-c4noc(CCC(C)(C)O)n4)ccc3C)cnc2c1 [F50, N-(5-(5-(3-hydroxy-3-methylbutyl)-1,2,4-oxadiazol-3-yl)-2-methylphenyl)-7-methylimidazo[1,2-a]pyridine-3-carboxamide]",52
22,Cc1ccc(-c2noc(C(C)OCC(F)(F)F)n2)cc1NC(=O)c1cnc2ccccn12 (stereo not drawn) [F266],11
23,"Cc1ccn2c(C(=O)Nc3cc(-c4noc(CC[C@@](C)(O)C(F)(F)F)n4)ccc3C)cnc2c1 (single isomer, unassigned) [F76]",49
24,Cc1nc(-c2ccc(C)c(NC(=O)c3cnc4ccccn34)c2)no1 [F11],86

# Same assay, conditions: Table 2, values marked *: 20% FBS instead of 1% FBS
row,SMILES,IC50 [nM]
1,COCc1noc(-c2ccc(C)c(NC(=O)c3cnc4ccccn34)c2)n1 [F108],716

# Same assay, conditions: Table 2; human Mo7e cells stimulated with human recombinant SCF, 48 h, CellTiter Glo; 1% FBS (footnote)
row,SMILES,IC50 [nM]
1,Cc1nc(-c2ccc(C)c(NC(=O)c3cnc4ccc(CCN5CCNCC5)cn34)c2)no1 [F211],571
2,Cc1nc(-c2ccc(C)c(NC(=O)c3cnc4ccc(C(N)=O)cn34)c2)no1 [F240],1480
3,Cc1nc(-c2ccc(C)c(NC(=O)c3cnc4ccc(-c5nc(C)c(C)s5)cn34)c2)no1 [F237],182
4,Cc1ccc(-c2noc(C[C@@H](C)NC(=O)OC(C)(C)C)n2)cc1NC(=O)c1cnc2ccccn12 [F142],294
5,Cc1ccc(-c2noc(CNC(=O)CCC(F)(F)F)n2)cc1NC(=O)c1cnc2ccccn12 [F154],182
6,CCOC(=O)NCCc1nc(-c2ccc(C)c(NC(=O)c3cnc4ccccn34)c2)no1 [F120],248
7,Cc1ccc(-c2noc(CN)n2)cc1NC(=O)c1cnc2ccccn12 [F217],1030
8,Cc1nc(-c2ccc(C)c(NC(=O)c3cnc4ccc(CCN5CCOCC5C)cn34)c2)no1 (stereo not drawn) [F186],416
9,Cc1nc(-c2ccc(C)c(NC(=O)c3cnc4ccc(C#N)cn34)c2)no1 [F185],508
10,Cc1ccc(-c2noc(CCC(C)(C)O)n2)cc1NC(=O)c1cnc2cc(F)ccn12 [F169],142
11,Cc1nc(-c2ccc(C)c(NC(=O)c3cnc4ccc(-c5cnccn5)cn34)c2)no1 [F201],125
12,Cc1ccc(-c2noc(CCC(=O)O)n2)cc1NC(=O)c1cnc2ccccn12 [F229],5450
13,Cc1ccc(-c2noc(CCC(C)O)n2)cc1NC(=O)c1cnc2ccccn12 (stereo not drawn) [F121],104
14,Cc1ccc(-c2noc(C(C)(C)NC(=O)OC(C)(C)C)n2)cc1NC(=O)c1cnc2ccccn12 [F143],201
15,Cc1nc(-c2ccc(C)c(NC(=O)c3cnc4cc(C#N)ccn34)c2)no1 [F187],219
16,Cc1nc(-c2ccc(C)c(NC(=O)c3cnc4ccc(-c5sc(C(=O)O)nc5C)cn34)c2)no1 [F247],341
17,COCCCc1nc(-c2ccc(F)c(NC(=O)c3cnc4ccccn34)c2)no1 [F139],394
18,Cc1nc(-c2ccc(C)c(NC(=O)c3cnc4ccc(-c5nc(C)c(C(=O)NCCO)s5)cn34)c2)no1 [F242],155
19,CC(C)(C)OC(=O)NCc1nc(-c2ccc(F)c(NC(=O)c3cnc4ccccn34)c2)no1 [F152],207
20,COC(=O)NCc1nc(-c2ccc(C)c(NC(=O)c3cnc4cc(F)ccn34)c2)no1 [F159],184
21,Cc1nc(-c2ccc(C)c(NC(=O)c3cnc4ccc(-c5nc(C)c(C(=O)NCCN6CCOCC6)s5)cn34)c2)no1 [F245],120
22,CC(=O)NCCc1nc(-c2ccc(C)c(NC(=O)c3cnc4ccccn34)c2)no1 [F113],689
23,COCCNC(=O)OCc1nc(-c2ccc(C)c(NC(=O)c3cnc4ccccn34)c2)no1 [F131],139
24,Cc1ccc(-c2noc(COCCO)n2)cc1NC(=O)c1cnc2ccccn12 [F163],192
25,COCCOC(=O)NCc1nc(-c2ccc(C)c(NC(=O)c3cnc4ccccn34)c2)no1 [F165],512
26,Cc1ccc(-c2noc([C@@H](C)NC(=O)OC(C)(C)C)n2)cc1NC(=O)c1cnc2ccccn12 [F126],102
27,Cc1ccc(-c2noc(CF)n2)cc1NC(=O)c1cnc2ccccn12 [F161],173
28,COCCOCc1nc(-c2ccc(C)c(NC(=O)c3cnc4ccc(F)cn34)c2)no1 [F179],139
29,Cc1ccc(-c2noc(C(C)(C)CO)n2)cc1NC(=O)c1cnc2ccccn12 [F109],682
